Earlier results on one molecule are cited in patent US8283154B2, “Method of decontaminating polluted environments with bacteria on a porous support” (National Institute for Agro-Environmental Sciences …, priority 2005, dated 2012).

Each structure is given as a SMILES string.

For the molecule `Clc1c(Cl)c(Cl)c(Cl)c(Cl)c1Cl` [HCB, hexachlorobenzene], the aqueous solubility is given as 0.005 ppm.
